ChEMBL document CHEMBL4190162, “SAR and identification of 2-(quinolin-4-yloxy)acetamides as Mycobacterium tuberculosis cytochrome bc1 inhibitors” (Medchemcomm, 2016)
Values after ≈ are worked out from the molar mass of the structure shown. Active and inactive are the calls of the source. No cut-off for these calls is given here.

Assays:
[1] = system: Mycobacterium tuberculosis; assay: Antimycobacterial activity against Mycobacterium tuberculosis H37Rv measured after 2 weeks; format: functional; conditions: 336 h
[2] = Cytotoxicity against human HepG2 cells after 24 to 48 hrs in presence of galactose by trypan blue dye-based hemocytometric method; format: cell-based
[3] = system: Mycobacterium tuberculosis; assay: Antimycobacterial activity against Mycobacterium tuberculosis H37Rv measured after 6 days by resazurin dye based fluorescence assay; format: functional; conditions: 144 h
[4] = system: Mycobacterium tuberculosis; assay: Antimycobacterial activity against Mycobacterium tuberculosis H37Rv measured after 1 week; format: functional; conditions: 168 h
[5] = system: Mycobacterium tuberculosis; assay: Antimycobacterial activity against Mycobacterium tuberculosis H37Rv after 2 weeks by microplate alamar blue assay; format: functional; conditions: 336 h
[6] = system: Mycobacterium tuberculosis; assay: Antimycobacterial activity against Mycobacterium tuberculosis H37Rv BSG001; format: functional, organism-based
[7] = system: Mycobacterium tuberculosis H37Rv; assay: Inhibition of Mycobacterium tuberculosis H37Rv cytochrome bc1 oxidase assessed as reduction in ATP level measured up to 24 hrs under anaerobic condition
[8] = Cytotoxicity against human HepG2 cells after 24 to 48 hrs in presence of glucose by trypan blue dye-based hemocytometric method; format: cell-based
[9] = system: Mycolicibacterium smegmatis; assay: Antibacterial activity against Mycobacterium smegmatis; format: functional, organism-based
[10] = system: Staphylococcus aureus; assay: Antibacterial activity against Staphylococcus aureus XEN36; format: functional, organism-based
[11] = system: Mycobacteroides abscessus; assay: Antibacterial activity against Mycobacterium abscessus; format: functional, organism-based
[12] = system: Escherichia coli; assay: Antibacterial activity against Escherichia coli 25922; format: functional, organism-based; conditions: ATCC 25922

SMILES	MIC [1] [µM]	CC50 [2] [µM]	MIC90 [3] [µM]	MIC [4] [µM]	MIC [5] [µM]	Activity [6]	inhibition [7]	CC50 [8] [µM]	Activity [9]	Activity [10]	Activity [11]	Activity [12]
COc1ccc2nc(C)cc(OCC(=O)Nc3ccccc3OC)c2c1	53.9 (≈ 19 µg/mL)	19.6	0.3 to 3.3 (≈ 0.106 to 1.16 µg/mL)	2.21 (≈ 0.779 µg/mL)	1.11 (≈ 0.391 µg/mL)	inactive	Active	> 142				
Cc1cc(OCC(=O)Nc2ccccc2)c2cc(Br)ccc2n1			0.3 to 3.3 (≈ 0.111 to 1.23 µg/mL)									
COc1ccc2nc(C)cc(OCC(=O)NCc3ccccc3)c2c1	> 148	> 149	0.3 to 3.3 (≈ 0.101 to 1.11 µg/mL)	3.57 (≈ 1.2 µg/mL)	2.32 (≈ 0.78 µg/mL)	inactive	Active	> 149				
COc1ccc2nc(C)cc(OCC(=O)Nc3cccc(C)c3)c2c1			0.3 to 3.3 (≈ 0.101 to 1.11 µg/mL)									
COc1ccccc1NC(=O)COc1cc(C)nc2ccc(Cl)cc12	> 140	99.2		26.4 (≈ 9.4 µg/mL)	104 (≈ 37 µg/mL)	inactive	Active	140	inactive	inactive	inactive	inactive
Cc1cc(OCC(=O)NCc2ccccc2)c2cc(Br)ccc2n1			0.3 to 3.3 (≈ 0.116 to 1.27 µg/mL)									
COc1ccc(NC(=O)COc2cc(C)nc3ccc(OC)cc23)cc1	> 142	> 142		2.21 (≈ 0.779 µg/mL)	1.11 (≈ 0.391 µg/mL)	inactive	Active	> 142	inactive	inactive	inactive	inactive
CCCCCNC(=O)COc1cc(C)nc2ccc(OC)cc12	158 (≈ 50 µg/mL)	106		158 (≈ 50 µg/mL)	19.8 (≈ 6.25 µg/mL)	inactive	Active	> 158	inactive	inactive	inactive	inactive
COc1ccc2nc(C)cc(OCC(=O)Nc3ccc(C)cc3)c2c1	> 149	41.5		0.45 (≈ 0.151 µg/mL)	0.45 (≈ 0.151 µg/mL)	inactive	Active	> 149	inactive	inactive	inactive	inactive
COc1ccc2nc(C)cc(OCC(=O)Nc3ccccc3Cl)c2c1	53.2 (≈ 19 µg/mL)	> 140		26.4 (≈ 9.4 µg/mL)	0.56 (≈ 0.2 µg/mL)	inactive	Active	> 140	inactive	inactive	inactive	inactive
COc1ccc2nc(C)cc(OCC(=O)Nc3ccc(Cl)cc3)c2c1	> 140	71.1		104 (≈ 37 µg/mL)	3.36 (≈ 1.2 µg/mL)	inactive	Active	89.9	inactive	inactive	inactive	inactive
COc1ccc2nc(C)cc(OCC(=O)Nc3cccc(Br)c3)c2c1	> 125	> 125		92.2 (≈ 37 µg/mL)	> 125	inactive	Active	> 125	inactive	inactive	inactive	inactive
COCCNC(=O)COc1cc(C)nc2ccc(OC)cc12	> 164	> 164		> 164	122 (≈ 37 µg/mL)	inactive	Active	> 164	inactive	inactive	inactive	inactive
COc1ccccc1NC(=O)COc1cc(C)nc2ccc(Br)cc12	> 125	> 125		23.4 (≈ 9.4 µg/mL)	> 125	inactive	Active	> 125	inactive	inactive	inactive	inactive
COc1ccc2nc(C)cc(OCC(=O)NCCc3ccc(OC)c(OC)c3)c2c1	> 122	> 122		> 122	122 (≈ 50.1 µg/mL)	inactive	Active	> 122	inactive	inactive	inactive	inactive
